Assay results as given in patent US20220227765A1, “PYRIDO-INDOLE ANALOGUES AS GPX4 INHIBITORS” (Ferro Therapeutics, Inc., priority 2019, published 2022).
Like-named read-outs stand apart in the source and are kept apart here.

What was measured:
Format in all cases: cell-based, human
A431 = assay: Cell proliferation (Alamar Blue) assay, A431
Experimental: (§1) Cell viability assay was performed to assess the potency of the compounds in human cancer cell lines 786-0 (renal cell carcinoma) and SJSA-1 (osteosarcoma). Additional cell lines, such as pancreatic cancer cell lines (Panc 02.13, BxPC-3, Panc 12, Panc 02.03, Panc 6.03, PSN-1, HPAC, and Capan-1), prostate cancer cell lines (PC-3, DU145, 22Rv1, NCI-H660, BPH1, LNCaP, BM-1604, and MDA PCa 2b), etc., can be tested in a similar method.
(§2) Cells (SJSA-1, 786-0 and A431) were seeded (5000 cells/100 μL/well) in 96-well tissue culture plate and incubated at 37° C./5% CO2 for 16-24 hours. The cells were then treated with compounds (25 μL of 5×). The compound concentrations were 10-0.0005 μM prepared in 3-fold serial dilutions with final DMSO concentration of 1%. The plates were then incubated for 24 h at 37° C./5% CO2 in a moist environment. Then Alamar Blue™ reagent (final concentration 1×-12.5 μL) was added to each well and incubated for 1.5 hours at 37° C./5% CO2. The plates were read on fluorescence reader at 540 nm excitation and 590 nm emission wavelengths. The IC50 values were subsequently determined using a sigmoidal dose-response curve (variable slope) in GraphPad Prism® 5 software. Table A-3, Table B-3 and Table C-3 show cell proliferation data for certain compounds as described herein.

786-O = assay: Cell proliferation (Alamar Blue) assay, 786-O
Experimental: as §1, §2

SJSA-1 = assay: Cell proliferation (Alamar Blue) assay, SJSA-1
Experimental: as §1, §2

[1] = Homo sapiens, A-431, 24 h, Table B-3, A431 cells
[2] = Homo sapiens, 786-0, 24 h, Table B-3, 786-O cells
[3] = Homo sapiens, SJSA-1, 24 h, Table B-3, head prints SJSB-1, 24 h, read-out: IC50 (μM) SJSB-1
[4] = Homo sapiens, 786-0, 24 h, Table C-3, 786-O cells
[5] = Homo sapiens, SJSA-1, 24 h, Table C-3, SJSA-1 cells, 24 h, read-out: IC50 (μM) SJSA-1
[6] = Homo sapiens, A-431, 24 h, Table C-3, A431 cells
[7] = Table B-3, head prints SJSB-1, 24 h, read-out: IC50 (μM) SJSB-1
[8] = Homo sapiens, A-431, 24 h, Table A-3, A431 cells
[9] = Homo sapiens, 786-0, 24 h, Table A-3, 786-O cells
[10] = Homo sapiens, SJSA-1, 24 h, Table A-3, SJSA-1 cells, 24 h, read-out: IC50 (μM) SJSA-1

Row | IC50 (A431; [1]) | IC50 (786-O; [2]) | IC50 (SJSA-1; [3]) | Structure (SMILES) | other results
1 | 5.9 µM | 0.008 µM | 0.015 µM | C#CC(=O)N1[C@@H](CCCC)Cc2c([nH]c3ccccc23)[C@@H]1c1ccc(NC2CCC2)cc1 [Compound B-4, 1-((1S,3S)-3-butyl-1-(4-(cyclobutylamino)phenyl)-1,3,4,9-tetrahydro-2H-pyrido[3,4-b]indol-2-yl)prop-2-yn-1-one] | –
2 | – | 0.005 µM | 0.006 µM | C#CC(=O)N1[C@@H](CCCC)Cc2c([nH]c3ccccc23)[C@@H]1c1ccc(NC23CC4CC(CC(C4)C2)C3)cc1 [Compound B-18] | IC50 (A431; Table B-3, A431 cells, 24 h): 7.8 µM
3 | 7.97 µM | 0.155 µM | – | C#CC(=O)N1[C@@H](CCCC)Cc2c(oc3ccccc23)[C@@H]1c1ccc(NC(=O)OCCCCC)cc1 [Compound B-101] | –
4 | > 10 µM | 0.011 µM | 0.016 µM | C#CC(=O)N1[C@@H](CCCC)Cc2c([nH]c3c(F)cc(F)cc23)[C@@H]1c1ccc(N2CCC2)cc1 [Compound B-59] | –
5 | – | – | – | C[C@H]1Cc2c([nH]c3ccccc23)[C@](C)(c2ccc(F)cc2)N1C(=O)CCl [Compound C-18] | IC50 (786-O; [4]): 0.437 µM; IC50 (SJSA-1; [5]): 0.332 µM
6 | 6.1 µM | 0.024 µM | 0.024 µM | C#CC(=O)N1[C@@H](c2ccc(NC34CC5CC(CC(C5)C3)C4)cc2)c2[nH]c3ccccc3c2C[C@@H]1C(=O)OC [Compound B-6, methyl (1S,3R)-1-(4-(((3R,5R,7R)-adamantan-1-yl)amino)phenyl)-2-propioloyl-2,3,4,9-tetrahydro-1H-pyrido[3,4-b]indole-3-carboxylate] | –
7 | > 10 µM | 0.168 µM | 0.247 µM | C#CC(=O)N1[C@@H](CCCC)Cc2c([nH]c3c(F)cc(F)cc23)[C@@H]1C1CCC(=O)CC1 [Compound B-76] | –
8 | – | – | – | C#CC(=O)N1[C@@H](CCCC)Cc2c([nH]c3c(F)cc(F)cc23)[C@@H]1CCCC [Compound C-4] | IC50 (A431; [6]): 4.4 µM; IC50 (786-O; [4]): 0.048 µM; IC50 (SJSA-1; [5]): 0.045 µM
9 | > 10 µM | 0.008 µM | 0.002 µM | CCCCCOC(=O)Nc1ccc([C@H]2c3[nH]c4c(F)cc(F)cc4c3C[C@H](CCCC)N2C(=O)CCl)cc1 [Compound B-89] | –
10 | – | – | – | C#CC(=O)N1[C@@H](CCCC)Cc2c([nH]c3c(F)cc(F)cc23)[C@@H]1c1ccc(NC(=O)OCCCCC)cc1 [Compound B-91] | IC50 (786-O; Table B-3, 786-O cells, 24 h): 0.076 µM; IC50 (SJSA-1; [7]): 0.075 µM
11 | – | 1.7 µM | 1.9 µM | COC(=O)[C@H]1Cc2c([nH]c3ccccc23)[C@H](c2ccc(N(C(=O)CCCC[C@@H]3SC[C@@H]4NC(=O)N[C@@H]43)C3CC3)cc2)N1C(=O)CCl [Compound B-8, methyl (1S,3R)-2-(2-chloroacetyl)-1-(4-(N-cyclopropyl-5-((3aS,4S,6aR)-2-oxohexahydro-1H-thieno[3,4-d]imidazol-4-yl)pentanamido)phenyl)-2,3,4,9-tetrahydro-1H-pyrido[3,4-b]indole-3-carboxylate] | –
12 | – | > 10 µM | > 10 µM | COC(=O)[C@H]1Cc2c([nH]c3ccccc23)[C@@H](c2ccc(N(C(=O)CCCC[C@@H]3SC[C@@H]4NC(=O)N[C@@H]43)C3CC3)cc2)N1C(=O)CCl [Compound B-9, methyl (1R,3R)-2-(2-chloroacetyl)-1-(4-(N-cyclopropyl-5-((3aS,4S,6aR)-2-oxohexahydro-1H-thieno[3,4-d]imidazol-4-yl)pentanamido)phenyl)-2,3,4,9-tetrahydro-1H-pyrido[3,4-b]indole-3-carboxylate] | –
13 | – | – | – | C[C@H]1Cc2c([nH]c3ncccc23)[C@H](c2ccc(F)cc2)N1C(=O)CCl [Compound A-1] | IC50 (A431; [8]): > 10 µM; IC50 (786-O; [9]): 0.03 µM; IC50 (SJSA-1; [10]): 0.145 µM
14 | – | – | – | C#CC(=O)N1[C@@H](CCCC)Cc2c([nH]c3c(F)cc(F)cc23)[C@@H]1CC(C)C [Compound C-5] | IC50 (A431; [6]): > 10 µM; IC50 (786-O; [4]): 0.22 µM; IC50 (SJSA-1; [5]): 0.22 µM
15 | 6.4 µM | 0.029 µM | 0.021 µM | C#CC(=O)N1C(c2ccn(-c3ccc(F)cc3)n2)c2[nH]c3ccccc3c2C[C@@H]1CCCC (some centres unmarked) [Compound B-62] | –
16 | > 10 µM | 0.135 µM | 0.15 µM | C#CC(=O)N1[C@@H](CCCC)Cc2c([nH]c3c(F)cc(F)cc23)[C@@H]1c1ccc(N2CCN(C)CC2)c(C#N)c1 [Compound B-58] | –
17 | – | – | – | C#CC(=O)N1[C@@H](CCCC)Cc2cc(OC)ccc2[C@@]1(C)c1ccc(NC23CC4CC(CC(C4)C2)C3)cc1 [Compound C-36] | IC50 (A431; [6]): > 10 µM; IC50 (786-O; [4]): 0.69 µM
18 | – | – | – | C#CC(=O)N1[C@@H](CCCC)Cc2c([nH]c3c(F)cc(F)cc23)[C@@H]1COCCOC [Compound C-7] | IC50 (A431; [6]): 6.8 µM; IC50 (786-O; [4]): 0.043 µM; IC50 (SJSA-1; [5]): 0.093 µM

Row | IC50 (A431; [1]) | IC50 (786-O; [2]) | IC50 (SJSA-1; [3]) | Structure (SMILES) | other results
19 | > 10 µM | 0.227 µM | 0.239 µM | C#CC(=O)N1[C@@H](CCCC)Cc2c([nH]c3c(F)cc(F)cc23)[C@@H]1c1ccc(NC(=O)OCCCC(=O)O)cc1 [Compound B-86] | –
20 | – | – | – | C[C@H]1Cc2c([nH]c3ncccc23)[C@@H](c2ccc(F)cc2)N1C(=O)CCl [Compound A-2] | IC50 (A431; [8]): 7.06 µM; IC50 (786-O; [9]): 3.52 µM; IC50 (SJSA-1; [10]): 9.11 µM
21 | – | – | – | C#CC(=O)N1[C@@H](CCCC)Cc2cc(OC)ccc2[C@]1(C)c1ccc(NC23CC4CC(CC(C4)C2)C3)cc1 [Compound C-35] | IC50 (A431; [6]): > 10 µM; IC50 (786-O; [4]): 0.45 µM
22 | – | 0.086 µM | 0.084 µM | C#CC(=O)N1[C@@H](CCCC)Cc2c([nH]c3c(F)cc(F)cc23)[C@@H]1C12CC(NC(=O)OCCCCC)(C1)C2 [Compound B-84] | –
23 | > 10 µM | 0.012 µM | 0.024 µM | CCCC[C@H]1Cc2c([nH]c3c(F)cc(F)cc23)[C@H](c2ccc(N)cc2)N1C(=O)CCl [Compound B-85] | –
24 | – | – | – | C#CC(=O)N1[C@@H](CCCC)Cc2c([nH]c3ccccc23)[C@]1(C)c1ccc(F)cc1 [Compound C-11] | IC50 (A431; [6]): > 10 µM; IC50 (786-O; [4]): 0.098 µM; IC50 (SJSA-1; [5]): 0.22 µM
25 | > 10 µM | 0.181 µM | – | C#CC(=O)N1[C@@H](CCCC)Cc2c(n(CC(O)CO)c3c(F)cc(F)cc23)[C@@H]1c1ccc(NC(=O)OCCCCC)cc1 (some centres unmarked) [Compound B-98] | –
26 | – | – | – | CC1(c2ccc(F)cc2)c2[nH]c3ccccc3c2CCN1C(=O)CCl (centres unmarked) [Compound C-20] | IC50 (786-O; [4]): 4.49 µM; IC50 (SJSA-1; [5]): 3.98 µM
27 | > 10 µM | 0.2 µM | 0.16 µM | C#CC(=O)N1[C@@H](CCCC)Cc2c([nH]c3c(F)cc(F)cc23)[C@@H]1CC(C)C [Compound B-82] | –
28 | – | – | – | C#CC(=O)N1[C@@H](CCCC)Cc2c([nH]c3c(F)cc(F)cc23)[C@@H]1CCCCCCCC [Compound C-21] | IC50 (A431; [6]): 9.4 µM; IC50 (786-O; [4]): 0.07 µM; IC50 (SJSA-1; [5]): 0.08 µM
29 | – | – | – | C#CC(=O)N1[C@@H](CCCC)Cc2c([nH]c3c(F)cc(F)cc23)[C@@H]1C1CCN(C(=O)OC)CC1 [Compound B-75] | IC50 (786-O; Table B-3, 786-O cells, 24 h): 0.03 µM; IC50 (SJSA-1; [7]): 0.06 µM
30 | > 10 µM | 0.222 µM | 0.223 µM | C#CC(=O)N1[C@@H](CCCC)Cc2c([nH]c3c(F)cc(F)cc23)[C@@H]1C(C)C [Compound B-72] | –
31 | 6.35 µM | 0.071 µM | 0.0455 µM | C#CC(=O)N1[C@@H](CCCC)Cc2c(n(CC#N)c3c(F)cc(F)cc23)[C@@H]1c1ccc(NC(=O)OCCCCC)cc1 [Compound B-97] | –
32 | 3.2 µM | 0.006 µM | 0.014 µM | C#CC(=O)N1[C@@H](CCCC)Cc2c([nH]c3ccccc23)[C@@H]1c1ccc(-c2nc(C)no2)cc1 [Compound B-2, 1-((1S,3S)-3-butyl-1-(4-(3-methyl-1,2,4-oxadiazol-5-yl)phenyl)-1,3,4,9-tetrahydro-2H-pyrido[3,4-b]indol-2-yl)prop-2-yn-1-one] | –
33 | – | – | – | C#CC(=O)N1CCc2c([nH]c3ccccc23)C1(C)c1ccc(F)cc1 (centres unmarked) [Compound C-19] | IC50 (786-O; [4]): 2.32 µM; IC50 (SJSA-1; [5]): 1.89 µM
34 | – | 0.08 µM | 0.293 µM | C#CC(=O)N1[C@@H](CCCC)Cc2c(n(C)c3c(F)cc(F)cc23)[C@@H]1c1ccc(NC(=O)OCCCCC)cc1 [Compound B-96] | –
35 | – | 0.006 µM | 0.014 µM | C#CC(=O)N1[C@@H](CCCC)Cc2c([nH]c3ccccc23)[C@@H]1c1ccc(NC23CC4CC(CC(O)(C4)C2)C3)cc1 [Compound B-44] | –

Row | Structure (SMILES) | IC50 (A431; [1]) | IC50 (786-O; [2]) | IC50 (SJSA-1; [3]) | other results
36 | C#CC(=O)N1[C@@H](CCCC)Cc2c([nH]c3ccccc23)[C@@H]1c1ccc(N2C3CCC2COC3)cc1 [Compound B-66, 1-((1 S,3 S)-1-(4-(3-oxa-8-azabicyclo[3.2.1]octan-8-yl)phenyl)-3-butyl-1,3,4,9-tetrahydro-2H-pyrido[3,4-b]indol-2-yl)prop-2-yn-1-one] | 4.35 µM | – | – | –
